Test results from publication PMC10838382 (Cancer Drug Resistance, 2024).
Read-outs that look alike come from different tables or passages of the source.

What was measured:
MAXFTN CAL-51 = assay: cells; settings: Homo sapiens, CAL-51, read-out: Relative docetaxel IC50
LXFA EKVX = assay: cells; settings: Homo sapiens, read-out: Relative docetaxel IC50
Caco-2 cell monolayers = assay: Bidirectional permeability assay across Caco-2 monolayers; assay type: in vitro ADME, human; settings: for ER: inhibitor where named: valspodar 10 μM or ritonavir 50 μM
Protocol: (§1) Samples were analyzed using LC-MS/MS.
(§2) The medium was changed 24 h before the experiment. […] The bioanalysis of docetaxel was performed with the .
(§3) The following equation was used to calculate apparent permeability coefficient (Papp):
(§4) dQ: amount of transporter test drug in pmol; dT: incubation time in seconds; A: surface of porous membrane in cm^2 (standard: 0.7); C0: initial concentration of test agent in the donor chamber in pmol/cm^3.

[1] = as above; assay type: in vitro ADME, human; settings: human
Protocol: as §1, §2, §3, §4

LXFA 737 = assay: 2D proliferation assay (CellTiter-Blue); settings: read-out: Relative docetaxel IC50
PC-3M = assay: 2D proliferation assay (CellTiter-Blue); settings: Homo sapiens, read-out: Relative docetaxel IC50
PC-3 = assay: 2D proliferation assay (CellTiter-Blue); assay type: cell-based; settings: Homo sapiens
DU-145DOC10 [2] = assay: 2D proliferation assay, docetaxel-resistant subline; assay type: cell-based, human; settings: for IC50: Homo sapiens
MAXFTN MCF 10A = assay: cells; settings: Homo sapiens, read-out: Relative docetaxel IC50
DU-145DOC10 [3] = assay: 3D clonogenic assay (soft agar); assay type: cell-based, human; settings: for Relative resistance: DU-145DOC10 vs DU-145
PC-3DOC3 = assay: 2D proliferation assay, docetaxel-exposed subline; assay type: cell-based, human
OVXF 899 = assay: cells; settings: read-out: Relative docetaxel IC50
22Rv1DOC8 [4] = assay: 3D clonogenic assay (soft agar); assay type: cell-based, human; settings: for Relative resistance: 22Rv1DOC8 vs 22Rv1; for IC50: Homo sapiens
PRXF DU-145 = assay: 2D proliferation assay (CellTiter-Blue); assay type: cell-based, human; settings: Homo sapiens
15 tumor cell lines = assay: 2D proliferation assay (CellTiter-Blue), panel of 15 tumor cell lines; settings: read-out: mean relative IC50
GXA NUGC-4 = assay: cells; settings: Homo sapiens, NUGC-4, read-out: Relative docetaxel IC50
OVXF NCI-ADR-RES = assay: cells; settings: Homo sapiens, read-out: Relative docetaxel IC50
DU-145 = assay: 3D clonogenic assay (soft agar); settings: Homo sapiens, DU-145, read-out: Docetaxel IC50, DU-145, 3D clonogenic assay
GXA 3011 = assay: cells; settings: read-out: Relative docetaxel IC50
22Rv1DOC8 [5] = assay: 2D proliferation assay, docetaxel-resistant subline; assay type: cell-based, human; settings: for IC50: Homo sapiens
OVXF EFO-27 = assay: 2D proliferation assay (CellTiter-Blue); settings: Homo sapiens, EFO-27, read-out: Relative docetaxel IC50
PRXF 22Rv1 = assay: 2D proliferation assay (CellTiter-Blue); assay type: cell-based; settings: Homo sapiens
22Rv1 = assay: 3D clonogenic assay (soft agar); settings: Homo sapiens, 22Rv1, read-out: Docetaxel IC50, 22Rv1, 3D clonogenic assay
MAXFTN MX1 = assay: 2D proliferation assay (CellTiter-Blue); settings: read-out: Relative docetaxel IC50
MAXFLB MCF7 = assay: cells; settings: Homo sapiens, MCF7, read-out: Relative docetaxel IC50
[6] = docetaxel + elacridar 1 µM, 3D clonogenic assay
[7] = docetaxel + ritonavir 10 µM, 3D clonogenic assay
[8] = docetaxel without elacridar, 3D clonogenic assay
[9] = docetaxel without ritonavir, 3D clonogenic assay
[10] = without elacridar (elacridar experiment)
[11] = without ritonavir (ritonavir experiment)

CC(=O)O[C@@]12CO[C@@H]1C[C@H](O)[C@@]1(C)C(=O)[C@H](O)C3=C(C)[C@@H](OC(=O)[C@H](O)[C@@H](NC(=O)OC(C)(C)C)c4ccccc4)C[C@@](O)([C@@H](OC(=O)c4ccccc4)[C@H]21)C3(C)C [Docetaxel]
IC50 (MAXFTN CAL-51): 1.7 nM | IC50 (LXFA EKVX): 1.9 nM | ER values (Caco-2 cell monolayers; both at 5 and 10 μM docetaxel, no inhibitor): > 2 | ER (Caco-2 cell monolayers; docetaxel 5 μM, incubation 60 min): 69.46 ± 13.24 | ER (Caco-2 cell monolayers; docetaxel 5 μM, incubation 120 min): 43.85 ± 3.80 | ER (Caco-2 cell monolayers; docetaxel 10 μM, incubation 120 min): 32.66 ± 5.35 | Papp A→B at 60 min, 5 μM ([1]; Caco-2): 0.29 ± 0.06 ×10⁻⁶ cm/s | Papp A→B at 60 min, 10 μM ([1]; Caco-2): 0.66 ± 0.02 ×10⁻⁶ cm/s | Papp A→B at 120 min, 5 μM ([1]; Caco-2): 0.81 ± 0.06 ×10⁻⁶ cm/s | Papp A→B at 120 min, 10 μM ([1]; Caco-2): 0.91 ± 0.15 ×10⁻⁶ cm/s | Papp B→A at 60 min, 5 μM ([1]; Caco-2): 20.3 ± 0.25 ×10⁻⁶ cm/s | Papp B→A at 60 min, 10 μM ([1]; Caco-2): 21 ± 0.78 ×10⁻⁶ cm/s | Papp B→A at 120 min, 5 μM ([1]; Caco-2): 35.4 ± 1.83 ×10⁻⁶ cm/s | Papp B→A at 120 min, 10 μM ([1]; Caco-2): 29.6 ± 0.8 ×10⁻⁶ cm/s | efflux ratio at 60 min, 5 μM ([1]; Caco-2, docetaxel 5 μM, incubation 60 min, inhibitor where named: valspodar 10 μM or ritonavir 50 μM, read-out: ER): 69.5 | efflux ratio at 120 min, 5 μM ([1]; Caco-2, docetaxel 5 μM, incubation 120 min, inhibitor where named: valspodar 10 μM or ritonavir 50 μM, read-out: ER): 43.9 | efflux ratio at 60 min, 10 μM ([1]; Caco-2, docetaxel 10 μM, incubation 60 min, inhibitor where named: valspodar 10 μM or ritonavir 50 μM, read-out: ER): 31.8 ± 1.54 | efflux ratio at 120 min, 10 μM ([1]; Caco-2, docetaxel 10 μM, incubation 120 min, inhibitor where named: valspodar 10 μM or ritonavir 50 μM, read-out: ER): 32.7 | IC50 (LXFA 737): 2.2 nM | IC50 (PC-3M): 2.4 nM | IC50 (PC-3; PC-3, read-out: Relative docetaxel IC50): 1.9 nM | IC50 (PC-3; PC-3 parental, read-out: Docetaxel IC50): 1.1 nM | Relative resistance (DU-145DOC10 [2]; DU-145DOC10 vs DU-145, 2D proliferation assay): 22.3 | IC50 (DU-145DOC10 [2]; DU-145DOC10 (passage 10 nM docetaxel), 2D proliferation assay, read-out: Docetaxel IC50): 17.8 nM | IC50 (DU-145DOC10 [2]; DU-145DOC10, 2D culture, Figure 1, read-out: IC 50): 17.8 nM | IC50 (MAXFTN MCF 10A): 0.7 nM | IC50 (DU-145DOC10 [3]; DU-145DOC10, 3D clonogenic assay, without elacridar (elacridar experiment), read-out: Docetaxel IC50): 11.7 nM | fold decrease of relative IC50 of docetaxel by elacridar (DU-145DOC10 [3]; DU-145DOC10, elacridar 1 µM as printed (lower of two concentrations), 3D clonogenic assay): 6 fold | fold decrease of relative IC50 of docetaxel by elacridar (DU-145DOC10 [3]; DU-145DOC10, elacridar 10 µM as printed (higher of two concentrations), 3D clonogenic assay): 7.1 fold | fold lower docetaxel IC50 on addition of ritonavir (DU-145DOC10 [3]; DU-145DOC10, ritonavir 10 µM, 3D clonogenic assay): 3.4 fold | Relative resistance (DU-145DOC10 [3]; [6]): 1.5 | Relative resistance (DU-145DOC10 [3]; [7]): 1.0 | Relative resistance (DU-145DOC10 [3]; [8]): 10.6 | Relative resistance (DU-145DOC10 [3]; [9]): 3.3 | IC50 (DU-145DOC10 [3]; Homo sapiens, DU-145DOC10, 3D clonogenic assay, + elacridar 1 µM, read-out: Docetaxel IC50): 1.6 nM | IC50 (DU-145DOC10 [3]; Homo sapiens, DU-145DOC10, 3D clonogenic assay, + elacridar, first of two values both printed as 1 μM (Figure 6 legend), read-out: Docetaxel IC50): 1.9 nM | IC50 (DU-145DOC10 [3]; Homo sapiens, DU-145DOC10, 3D clonogenic assay, + ritonavir 10 µM, read-out: Docetaxel IC50): 2.8 nM | IC50 (DU-145DOC10 [3]; Homo sapiens, DU-145DOC10, 3D clonogenic assay, without elacridar (elacridar experiment), read-out: Docetaxel IC50): 11.4 nM | IC50 (DU-145DOC10 [3]; Homo sapiens, DU-145DOC10, 3D clonogenic assay, without ritonavir (ritonavir experiment), read-out: Docetaxel IC50): 9.5 nM | IC50 (DU-145DOC10 [3]; Homo sapiens, DU-145DOC10, docetaxel alone, Figure 4A, read-out: IC 50): 9.37 nM | IC50 (DU-145DOC10 [3]; Homo sapiens, DU-145DOC10, docetaxel alone, Figure 6A, read-out: IC 50): 11.4 nM | IC50 (PC-3DOC3; Homo sapiens, PC-3DOC3 (passage 2 nM docetaxel)): 4.4 nM | Relative resistance (PC-3DOC3; PC-3DOC3 vs PC-3): 4.0 | IC50 (OVXF 899): 20.2 nM | fold decrease of relative IC50 of docetaxel by elacridar (22Rv1DOC8 [4]; 22Rv1DOC8, elacridar 1 µM as printed (lower of two concentrations), 3D clonogenic assay): 91 fold | fold decrease of relative IC50 of docetaxel by elacridar (22Rv1DOC8 [4]; 22Rv1DOC8, elacridar 10 µM as printed (higher of two concentrations), 3D clonogenic assay): 116 fold | fold decrease of docetaxel IC50 by ritonavir (22Rv1DOC8 [4]; 22Rv1DOC8, ritonavir 32 μM, 3D clonogenic assay): 84 fold | Relative resistance (22Rv1DOC8 [4]; [6]): 1.0 | Relative resistance (22Rv1DOC8 [4]; [7]): 35.5 | Relative resistance (22Rv1DOC8 [4]; docetaxel + ritonavir 10 µM, 3D clonogenic assay, listed as docetaxel): 36 | Relative resistance (22Rv1DOC8 [4]; docetaxel + ritonavir 32 µM, 3D clonogenic assay): 2.3 | Relative resistance (22Rv1DOC8 [4]; [8]): 103.1 | Relative resistance (22Rv1DOC8 [4]; [9]): 42.0 | IC50 (22Rv1DOC8 [4]; 22Rv1DOC8, 3D clonogenic assay, + elacridar 1 µM, read-out: Docetaxel IC50): 1.3 nM | IC50 (22Rv1DOC8 [4]; 22Rv1DOC8, 3D clonogenic assay, + ritonavir 10 µM, read-out: Docetaxel IC50): 46.2 nM | IC50 (22Rv1DOC8 [4]; 22Rv1DOC8, 3D clonogenic assay, + ritonavir 32 µM, read-out: Docetaxel IC50): 3 nM | IC50 (22Rv1DOC8 [4]; 22Rv1DOC8, 3D clonogenic assay, without elacridar (elacridar experiment), read-out: Docetaxel IC50): 134 nM | IC50 (22Rv1DOC8 [4]; 22Rv1DOC8, 3D clonogenic assay, without ritonavir (32 μM ritonavir experiment, Figure 5), read-out: relative IC50 value of docetaxel): 219 nM | IC50 (22Rv1DOC8 [4]; 22Rv1DOC8, 3D clonogenic assay, without ritonavir (ritonavir experiment), read-out: Docetaxel IC50): 54.6 nM | IC50 (22Rv1DOC8 [4]; 22Rv1DOC8, docetaxel alone, Figure 5A, read-out: IC 50): 224 nM | IC50 (PRXF DU-145; DU-145, DU-145, 2D culture, Figure 1, read-out: IC 50): 0.81 nM | IC50 (PRXF DU-145; DU-145, DU-145 parental, 2D proliferation assay, read-out: Docetaxel IC50): 0.8 nM | IC50 (PRXF DU-145; DU-145, PRXF DU-145, 2D proliferation assay, read-out: Relative docetaxel IC50): 0.9 nM | IC50 (15 tumor cell lines): 2.6 nM | IC50 (GXA NUGC-4): 5.5 nM | IC50 (OVXF NCI-ADR-RES): > 100 nM | IC50 (DU-145; + ritonavir 10 µM): 1.7 nM | IC50 (DU-145; [10]): 1.1 nM | IC50 (DU-145; [11]): 2.9 nM | IC50 (GXA 3011): 0.5 nM | Relative resistance (22Rv1DOC8 [5]; 22Rv1-DOC8 vs 22Rv1, 2D proliferation assay): 133.6 | IC50 (22Rv1DOC8 [5]; 22Rv1-DOC8 (passage 8 nM docetaxel), 2D proliferation assay, read-out: Docetaxel IC50): 134 nM | IC50 (22Rv1DOC8 [5]; 22Rv1DOC8, 2D culture, Figure 1, read-out: IC 50): 134 nM | IC50 (OVXF EFO-27): 0.7 nM | IC50 (PRXF 22Rv1; 22Rv1, 2D culture, Figure 1, read-out: IC 50): 0.98 nM | IC50 (PRXF 22Rv1; 22Rv1 parental, 2D proliferation assay, read-out: Docetaxel IC50): 1 nM | IC50 (PRXF 22Rv1; PRXF 22Rv1, 2D proliferation assay, read-out: Relative docetaxel IC50): 1.5 nM | IC50 (22Rv1; + ritonavir 10 µM): 1.8 nM | IC50 (22Rv1; [10]): 1.3 nM | IC50 (22Rv1; [11]): 1.3 nM | IC50 (MAXFTN MX1): 1.9 nM | IC50 (MAXFLB MCF7): 1.1 nM
